In US12077503B2, “Substituted cyclic amides and their use as herbicides” (FMC CORPORATION, priority 2015, dated 2024):

Key:
Format in all cases: in vivo
[1] = system: barnyardgrass (Echinochloa crus-galli); experiment: Test A preemergence; conditions: Echinochloa crus-galli, pre-emergence, 240 h, read-out: Plant response rating, Barnyardgrass; for pest or weed control at 125 g/ha: 125 g ai/ha, visual rating after approx. 10 d, 0 to 100 scale where 0 is no effect and 100 is complete control
How it was run: (§1)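 Each rating is a visual injury score from 0 to 100 given about 10 d after treatment, judged against untreated controls kept alongside in the greenhouse. In loam soil–sand blend, seeds got a preemergence directed soil spray, while postemergence plants were 2 to 10 cm tall at spraying.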

[2] = system: ragweed (common ragweed, Ambrosia elatior); experiment: Test A preemergence; conditions: Ambrosia artemisiifolia, pre-emergence, 240 h, read-out: Plant response rating, Ragweed; for pest or weed control at 125 g/ha: 125 g ai/ha, visual rating after approx. 10 d, 0 to 100 scale where 0 is no effect and 100 is complete control
How it was run: as §1

[3] = system: Kochia (Kochia scoparia); experiment: Test A preemergence; conditions: Bassia scoparia, pre-emergence, 240 h, read-out: Plant response rating, Kochia; for pest or weed control at 125 g/ha: 125 g ai/ha, visual rating after approx. 10 d, 0 to 100 scale where 0 is no effect and 100 is complete control
How it was run: as §1

[4] = system: ryegrass, Italian (Italian ryegrass, Lolium multiflorum); experiment: Test A preemergence; conditions: Lolium multiflorum, pre-emergence, 240 h, read-out: Plant response rating, Ryegrass, Italian; for pest or weed control at 125 g/ha: 125 g ai/ha, visual rating after approx. 10 d, 0 to 100 scale where 0 is no effect and 100 is complete control
How it was run: as §1

[5] = system: pigweed (Amaranthus retroflexus); experiment: Test A preemergence; conditions: Amaranthus retroflexus, pre-emergence, 240 h, read-out: Plant response rating, Pigweed; for pest or weed control at 125 g/ha: 125 g ai/ha, visual rating after approx. 10 d, 0 to 100 scale where 0 is no effect and 100 is complete control
[6] = system: giant foxtail (Setaria faberii); experiment: Test A preemergence; conditions: Setaria faberi, pre-emergence, 240 h, read-out: Plant response rating, Foxtail, Giant; for pest or weed control at 125 g/ha: 125 g ai/ha, visual rating after approx. 10 d, 0 to 100 scale where 0 is no effect and 100 is complete control
How it was run: as §1

[7] = system: Galium (catchweed bedstraw, Galium aparine); experiment: Test A postemergence; conditions: Galium, post-emergence, 240 h, read-out: Plant response rating, Galium; for pest or weed control at 125 g/ha: 125 g ai/ha, postemergence, visual injury after approximately 10 d, 0 to 100 scale (0 no effect, 100 complete control)
How it was run: as §1

[8] = system: corn (Zea mays); experiment: Test A postemergence; conditions: Zea mays, post-emergence, 240 h; for Corn plant response rating (crop injury, 0 = no effect, 100 = complete kill) at 125 g/ha: 125 g ai/ha, postemergence, visual injury after approximately 10 d, 0 to 100 scale (0 no effect, 100 complete control)
How it was run: as §1

[9] = system: barnyardgrass (Echinochloa crus-galli); experiment: Test A postemergence; conditions: Echinochloa crus-galli, post-emergence, 240 h, read-out: Plant response rating, Barnyardgrass; for pest or weed control at 125 g/ha: 125 g ai/ha, postemergence, visual injury after approximately 10 d, 0 to 100 scale (0 no effect, 100 complete control)
How it was run: as §1

[10] = system: ragweed (common ragweed, Ambrosia elatior); experiment: Test A postemergence; conditions: Ambrosia artemisiifolia, post-emergence, 240 h, read-out: Plant response rating, Ragweed; for pest or weed control at 125 g/ha: 125 g ai/ha, postemergence, visual injury after approximately 10 d, 0 to 100 scale (0 no effect, 100 complete control)
How it was run: as §1

[11] = system: wheat (Triticum aestivum); experiment: Test A postemergence; conditions: Triticum aestivum, post-emergence, 240 h, read-out: Plant response rating, Wheat; for plant injury at 125 g/ha: 125 g ai/ha, postemergence, visual injury after approximately 10 d, 0 to 100 scale (0 no effect, 100 complete control)
How it was run: as §1

[12] = system: Kochia (Kochia scoparia); experiment: Test A postemergence; conditions: Bassia scoparia, post-emergence, 240 h, read-out: Plant response rating, Kochia; for pest or weed control at 125 g/ha: 125 g ai/ha, postemergence, visual injury after approximately 10 d, 0 to 100 scale (0 no effect, 100 complete control)
How it was run: as §1

[13] = system: ryegrass, Italian (Italian ryegrass, Lolium multiflorum); experiment: Test A postemergence; conditions: Lolium multiflorum, post-emergence, 240 h, read-out: Plant response rating, Ryegrass, Italian; for pest or weed control at 125 g/ha: 125 g ai/ha, postemergence, visual injury after approximately 10 d, 0 to 100 scale (0 no effect, 100 complete control)
How it was run: as §1

[14] = system: pigweed (Amaranthus retroflexus); experiment: Test A postemergence; conditions: Amaranthus retroflexus, post-emergence, 240 h, read-out: Plant response rating, Pigweed; for pest or weed control at 125 g/ha: 125 g ai/ha, postemergence, visual injury after approximately 10 d, 0 to 100 scale (0 no effect, 100 complete control)
How it was run: as §1

[15] = system: giant foxtail (Setaria faberii); experiment: Test A postemergence; conditions: Setaria faberi, post-emergence, 240 h, read-out: Plant response rating, Foxtail, Giant; for pest or weed control at 125 g/ha: 125 g ai/ha, postemergence, visual injury after approximately 10 d, 0 to 100 scale (0 no effect, 100 complete control)
How it was run: as §1

[16] = 500 g ai/ha, preemergence, 0 to 100 scale, 0 = no effect, 100 = complete control
[17] = Preemergence, 31 g ai/ha, 0 to 100 scale (0 no effect, 100 complete control)
[18] = Postemergence, 31 g ai/ha, visual injury after approx. 10 d, 0 to 100 scale, 0 no effect, 100 complete control

Structure (SMILES)	pest or weed control at 125 g/ha ([1]; preemergence) [%]	pest or weed control at 125 g/ha ([2]; preemergence) [%]	pest or weed control at 125 g/ha ([3]; preemergence) [%]	pest or weed control at 125 g/ha ([4]; preemergence) [%]	pest or weed control at 125 g/ha ([5]; preemergence) [%]	pest or weed control at 125 g/ha ([6]; preemergence) [%]	pest or weed control at 125 g/ha [7] [%]	Corn plant response rating (crop injury, 0 = no effect, 100 = complete kill) at 125 g/ha [8] [%]	pest or weed control at 125 g/ha [9] [%]	pest or weed control at 125 g/ha [10] [%]	plant injury at 125 g/ha [11] [%]	pest or weed control at 125 g/ha [12] [%]	pest or weed control at 125 g/ha [13] [%]	pest or weed control at 125 g/ha [14] [%]	pest or weed control at 125 g/ha [15] [%]	further results
CN1C[C@H](c2ccc(C(F)(F)F)cc2)[C@@H](C(=O)Nc2ccccc2C(F)(F)F)C1=O [Compound 726]	90	30	70	50	80	90	50	60	90	30	30	30	40	50	90	pest or weed control at 500 g/ha [1, 16]: 90%; pest or weed control at 500 g/ha [2, 16]: 50%; pest or weed control at 500 g/ha [3, 16]: 90%; pest or weed control at 500 g/ha [4, 16]: 80%; pest or weed control at 500 g/ha [5, 16]: 90%; pest or weed control at 500 g/ha [6, 16]: 90%
COc1cc([C@H]2CN(C)C(=O)[C@@H]2C(=O)Nc2cccc(F)c2F)ccc1C(F)(F)F [Compound 770]	90	0	0	0	90	90	60	50	60	0	0	40	0	30	70	pest or weed control at 31 g/ha [1, 17]: 70%; pest or weed control at 31 g/ha [2, 17]: 0%; pest or weed control at 31 g/ha [3, 17]: 0%; pest or weed control at 31 g/ha [4, 17]: 0%; pest or weed control at 31 g/ha [5, 17]: 40%; pest or weed control at 31 g/ha [6, 17]: 90%; pest or weed control at 31 g/ha [7, 18]: 30%; Corn plant response rating (crop injury, 0 = no effect, 100 = complete kill) at 31 g/ha [8, 18]: 0%; pest or weed control at 31 g/ha [9, 18]: 30%; pest or weed control at 31 g/ha [10, 18]: 0%; plant injury at 31 g/ha [11, 18]: 0%; pest or weed control at 31 g/ha [12, 18]: 0%; pest or weed control at 31 g/ha [13, 18]: 0%; pest or weed control at 31 g/ha [14, 18]: 0%; pest or weed control at 31 g/ha [15, 18]: 60%
